US20200022370A1, “MICROBIOCIDAL OXADIAZOLE DERIVATIVES” (SYNGENTA PARTICIPATIONS AG, priority 2016, published 2020)
One block for each compound: values may come before it.

How the values were obtained:
Uromyces viciae-fabae = Uromyces viciae-fabae / field bean / leaf disc preventative (faba-bean rust); format: in vivo; details: foliar, 288 h, 100 ppm in the applied formulation, field bean leaf discs, inoculated two hours after application, vs untreated, 12 days after application, read-out: disease control
Method: Leaf disks or leaf segments of various plant species are cut from plants grown in a greenhouse. The cut leaf disks or segments are placed in multiwell plates (24-well format) onto water agar. The leaf disks are sprayed with a test solution before (preventative) or after (curative) inoculation. Compounds to be tested are prepared as DMSO solutions (max. 10 mg/ml) which are diluted to the appropriate concentration with 0.025% Tween20 just before spraying. The inoculated leaf disks or segments are incubated under defined conditions (temperature, relative humidity, light, etc.) according to the respective test system. A single evaluation of disease level is carried out 3 to 14 days after inoculation, depending on the pathosystem. Percent disease control relative to the untreated check leaf disks or segments is then calculated.
Example 5: Fungicidal Activity Against Uromyces viciae-fabael Field Bean/Leaf Disc Preventative (Faba-Bean Rust)
Field bean leaf discs are placed on water agar in multiwell plates (96-well format) and 10 μl of the Formulated test compound diluted in acetone and a spreader pipetted onto the leaf disc. Two hours after application leaf discs are inoculated by spraying a spore suspension on the lower leaf surface. The leaf discs are incubated in a climate cabinet at 22° C. with 18 hour day and 70% relative humidity. The activity of a compound is assessed as percent disease control compared to untreated when an appropriate level of disease damage appears in untreated check leaf disks (12 days after application).
The following compounds at 100 ppm in the applied Formulation give at least 80% disease control in this test when compared to untreated control leaf discs under the same conditions, which show extensive disease development.

Phakopsora pachyrhizi = Phakopsora pachyrhizi / soybean / leaf disc preventative (Asian soybean rust); format: in vivo; details: foliar, 200 ppm in the applied formulation, soybean leaf disks, inoculated one day after application, vs untreated, 12 to 14 days after application, read-out: disease control
In short: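 Soybean leaf discs on water agar sprayed with formulated compound diluted in water, then inoculated one day later with spore suspension on the lower surface. Held 24-36 h dark at 20 °C, 75% rh, then 12 h light/day; percent disease control versus untreated scored 12-14 days after application.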

[1] = test system: Glomerella lacenarium (Colletotrichum lacenarium); test: Glomerella lacenarium (Colletotrichum lacenarium) liquid culture / cucumber / preventative (anthracnose); format: cell-based; details: 20 ppm, liquid culture in PDB, 24° C., inhibition of growth measured photometrically 3 to 4 days after application, vs untreated, read-out: disease control
In short: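 Cryopreserved conidia in potato dextrose broth were added to test compound in a 96-well microtiter plate and incubated at 24 °C. Growth inhibition read photometrically 3–4 days after application, as percent activity versus untreated check.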

[2] = test system: Puccinia recondita f. Sp. Tritici; test: Puccinia recondita f. sp. tritici / wheat / leaf disc preventative (brown rust); format: in vivo; details: foliar, 200 ppm in the applied formulation, wheat leaf segments cv. Kanzler, inoculated 1 day after application, vs untreated, 7 to 9 days after application, read-out: disease control
In short: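 Preventative leaf-segment test on wheat cv. Kanzler: formulated compound diluted in water was sprayed onto segments on agar, with spore inoculation 1 day later. Incubated at 19° C, 75% rh, 12 h light/12 h dark; percent disease control versus untreated scored 7 to 9 days after application.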

[3] = test system: Puccinia recondita f. Sp. Tritici; test: Puccinia recondita f. sp. tritici / wheat / leaf disc curative (brown rust); format: in vivo; details: foliar, 200 ppm in the applied formulation, wheat leaf segments cv. Kanzler, compound applied 1 day after inoculation, vs untreated, 6 to 8 days after application, read-out: disease control
In short: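 Wheat leaf segments (cv. Kanzler) on agar inoculated with brown rust spores, held dark at 19 °C/75% RH, then sprayed 1 day post-inoculation with formulated compound diluted in water (curative). Incubated at 19 °C/75% RH, 12 h light/12 h dark; percent disease control versus untreated scored 6–8 days after application.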

SMILES: O=C(Nc1ccc(-c2noc(C(F)(F)F)n2)cc1)c1cncc(N2CCOCC2)n1 [Compound 1.2, 6-morpholino-N-[4-[5-(trifluoromethyl)-1,2,4-oxadiazol-3-yl]phenyl]pyrazine-2-carboxamide]
pest or weed control at 100 ppm (Uromyces viciae-fabae): ≥ 80% | pest or weed control at 200 ppm (Phakopsora pachyrhizi): ≥ 80%

SMILES: CC12CCC(C(=O)Nc3ccc(-c4noc(C(F)(F)F)n4)cc3)(OC1=O)C2(C)C (centres unmarked) [Compound 1.4, 1,7,7-trimethyl-2-oxo-N-[4-[5-(trifluoromethyl)-1,2,4-oxadiazol-3-yl]phenyl]-3-oxabicyclo[2.2.1] heptane-4-carboxamide]
inhibition of growth at 20 ppm [1]: ≥ 80% | pest or weed control at 100 ppm (Uromyces viciae-fabae): ≥ 80% | pest or weed control at 200 ppm (Phakopsora pachyrhizi): ≥ 80%

SMILES: C#CC(C)(C)C(=O)Nc1ccc(-c2noc(C(F)(F)F)n2)cc1 [Compound 1.5, 2,2-dimethyl-N-[4-[5-(trifluoromethyl)-1,2,4-oxadiazol-3-yl]phenyl]but-3-ynamide]
pest or weed control at 200 ppm [2]: ≥ 80% | pest or weed control at 200 ppm [3]: ≥ 80% | inhibition of growth at 20 ppm [1]: ≥ 80% | pest or weed control at 100 ppm (Uromyces viciae-fabae): ≥ 80% | pest or weed control at 200 ppm (Phakopsora pachyrhizi): ≥ 80%

SMILES: COc1cc(C(=O)Nc2ccc(-c3noc(C(F)(F)F)n3)cc2)cc(OC)c1OC [Compound 1.6, 3,4,5-trimethoxy-N-[4-[5-(trifluoromethyl)-1,2,4-oxadiazol-3-yl]phenyl]benzamide]
pest or weed control at 200 ppm [2]: ≥ 80% | pest or weed control at 100 ppm (Uromyces viciae-fabae): ≥ 80% | pest or weed control at 200 ppm (Phakopsora pachyrhizi): ≥ 80%

SMILES: COc1cc(CCC(=O)Nc2ccc(-c3noc(C(F)(F)F)n3)cc2)cc(OC)c1OC [Compound 1.13, N-[4-[5-(trifluoromethyl)-1,2,4-oxadiazol-3-yl]phenyl]-3-(3,4,5-trimethoxyphenyl) propanamide]
pest or weed control at 200 ppm [2]: ≥ 80% | inhibition of growth at 20 ppm [1]: ≥ 80% | pest or weed control at 100 ppm (Uromyces viciae-fabae): ≥ 80%

SMILES: O=C(Nc1ccc(-c2noc(C(F)(F)F)n2)cc1)C(F)c1ccccc1 (centres unmarked) [Compound 1.16, 2-fluoro-2-phenyl-N-[4-[5-(trifluoromethyl)-1,2,4-oxadiazol-3-yl]phenyl]acetamide]
pest or weed control at 200 ppm [2]: ≥ 80% | inhibition of growth at 20 ppm [1]: ≥ 80% | pest or weed control at 100 ppm (Uromyces viciae-fabae): ≥ 80% | pest or weed control at 200 ppm (Phakopsora pachyrhizi): ≥ 80%

SMILES: O=C(CCC(F)(F)F)Nc1ccc(-c2noc(C(F)(F)F)n2)cc1 [Compound 1.20, 4,4,4-trifluoro-N-[4-[5-(trifluoromethyl)-1,2,4-oxadiazol-3-yl]phenyl]butanamide]
pest or weed control at 200 ppm [2]: ≥ 80% | inhibition of growth at 20 ppm [1]: ≥ 80% | pest or weed control at 100 ppm (Uromyces viciae-fabae): ≥ 80% | pest or weed control at 200 ppm (Phakopsora pachyrhizi): ≥ 80%

SMILES: O=C(Cn1cncn1)Nc1ccc(-c2noc(C(F)(F)F)n2)cc1 [Compound 1.23, 2-(1,2,4-triazol-1-yl)-N-[4-[5-(trifluoromethyl)-1,2,4-oxadiazol-3-yl]phenyl]acetamide]
pest or weed control at 200 ppm [2]: ≥ 80% | inhibition of growth at 20 ppm [1]: ≥ 80% | pest or weed control at 100 ppm (Uromyces viciae-fabae): ≥ 80%

SMILES: CC(C)NC(=O)c1c(F)cccc1C(=O)Nc1ccc(-c2noc(C(F)(F)F)n2)cc1 [Compound 1.29, 3-fluoro-N2-isopropyl-N1-[4-[5-(trifluoromethyl)-1,2,4-oxadiazol-3-yl]phenyl] phthalamide]
pest or weed control at 200 ppm [2]: ≥ 80% | inhibition of growth at 20 ppm [1]: ≥ 80% | pest or weed control at 100 ppm (Uromyces viciae-fabae): ≥ 80% | pest or weed control at 200 ppm (Phakopsora pachyrhizi): ≥ 80%

SMILES: COC1=CC(=O)CC(C(=O)Nc2ccc(-c3noc(C(F)(F)F)n3)cc2)C1 (centres unmarked) [Compound 1.31, 3-methoxy-5-oxo-N-[4-[5-(trifluoromethyl)-1,2,4-oxadiazol-3-yl]phenyl]cyclohex-3-ene-1-carboxamide]
pest or weed control at 200 ppm [2]: ≥ 80% | inhibition of growth at 20 ppm [1]: ≥ 80% | pest or weed control at 100 ppm (Uromyces viciae-fabae): ≥ 80% | pest or weed control at 200 ppm (Phakopsora pachyrhizi): ≥ 80%

SMILES: CC(C)(C(=O)Nc1ccc(-c2noc(C(F)(F)F)n2)cc1)c1ncc(Cl)cc1Cl [Compound 1.32, 2-(3,5-dichloro-2-pyridyl)-2-methyl-N-[4-[5-(trifluoromethyl)-1,2,4-oxadiazol-3-yl]phenyl] propanamide]
pest or weed control at 200 ppm [2]: ≥ 80% | pest or weed control at 100 ppm (Uromyces viciae-fabae): ≥ 80%

SMILES: CC1Cc2c(Br)ccc(C(=O)Nc3ccc(-c4noc(C(F)(F)F)n4)cc3)c2S1(=O)=O (centres unmarked) [Compound 1.39, 4-bromo-2-methyl-1,1-dioxo-N-[4-[5-(trifluoromethyl)-1,2,4-oxadiazol-3-yl]phenyl]-2,3-dihydrobenzo-thiophene-7-carboxamide]
inhibition of growth at 20 ppm [1]: ≥ 80% | pest or weed control at 100 ppm (Uromyces viciae-fabae): ≥ 80%

SMILES: CC(=O)N(C(C)=O)c1ccc(-c2noc(C(F)(F)F)n2)cn1 [Compound 1.45, N-acetyl-N-[5-[5-(trifluoromethyl)-1,2,4-oxadiazol-3-yl]-2-pyridyl]acetamide]
pest or weed control at 200 ppm [2]: ≥ 80% | pest or weed control at 200 ppm [3]: ≥ 80% | inhibition of growth at 20 ppm [1]: ≥ 80% | pest or weed control at 100 ppm (Uromyces viciae-fabae): ≥ 80% | pest or weed control at 200 ppm (Phakopsora pachyrhizi): ≥ 80%

SMILES: CC(=O)N(CC(=O)NC(C)(C)C)c1ccc(-c2noc(C(F)(F)F)n2)cc1 [Compound 1.56, 2-[N-acetyl-4-[5-(trifluoromethyl)-1,2,4-oxadiazol-3-yl]anilino]-N-tert-butyl-acetamide]
pest or weed control at 200 ppm [2]: ≥ 80% | pest or weed control at 200 ppm [3]: ≥ 80% | inhibition of growth at 20 ppm [1]: ≥ 80% | pest or weed control at 100 ppm (Uromyces viciae-fabae): ≥ 80%

SMILES: CCC(=O)N(CC(=O)NC(C)(C)C)c1ccc(-c2noc(C(F)(F)F)n2)cc1 [Compound 1.57, N-[2-(tert-butylamino)-2-oxo-ethyl]-N-[4-[5-(trifluoromethyl)-1,2,4-oxadiazol-3-yl]phenyl] propanamide]
pest or weed control at 200 ppm [2]: ≥ 80% | inhibition of growth at 20 ppm [1]: ≥ 80% | pest or weed control at 100 ppm (Uromyces viciae-fabae): ≥ 80%

SMILES: COCC(=O)N(CC(=O)NC(C)(C)C)c1ccc(-c2noc(C(F)(F)F)n2)cc1 [Compound 1.58, N-tert-butyl-2-[N-(2-methoxyacetyl)-4-[5-(trifluoromethyl)-1,2,4-oxadiazol-3-yl]anilino]acetamide]
pest or weed control at 200 ppm [2]: ≥ 80% | pest or weed control at 100 ppm (Uromyces viciae-fabae): ≥ 80%

melting point: 83 to 87 °C
SMILES: CON(C)C(=O)Nc1ccc(-c2noc(C(F)(F)F)n2)cn1 [Compound 1.64, 1-methoxy-1-methyl-3-[5-[5-(trifluoromethyl)-1,2,4-oxadiazol-3-yl]-2-pyridyl]urea]
pest or weed control at 200 ppm [2]: ≥ 80% | inhibition of growth at 20 ppm [1]: ≥ 80%

melting point: 118 to 121 °C
SMILES: CC(C)=CCONC(=O)Nc1ccc(-c2noc(C(F)(F)F)n2)cc1 [Compound 1.66, 1-(3-methylbut-2-enoxy)-3-[4-[5-(trifluoromethyl)-1,2,4-oxadiazol-3-yl]phenyl]urea]
pest or weed control at 200 ppm [2]: ≥ 80% | inhibition of growth at 20 ppm [1]: ≥ 80%

melting point: 117 to 120 °C
SMILES: CON(CC1CC1)C(=O)Nc1ccc(-c2noc(C(F)(F)F)n2)cc1 [Compound 1.69, 1-(cyclopropylmethyl)-1-methoxy-3-[4-[5-(trifluoromethyl)-1,2,4-oxadiazol-3-yl]phenyl]urea]
inhibition of growth at 20 ppm [1]: ≥ 80%

melting point: 140 to 143 °C
SMILES: O=C(NOCc1ccccc1F)Nc1ccc(-c2noc(C(F)(F)F)n2)cc1 [Compound 1.127, 1-[(2-fluorophenyl)methoxy]-3-[4-[5-(trifluoromethyl)-1,2,4-oxadiazol-3-yl]phenyl]urea]
inhibition of growth at 20 ppm [1]: ≥ 80%

SMILES: CN(C(=O)C1CCC1)c1ccc(-c2noc(C(F)(F)F)n2)cc1 [Compound 2.25, N-methyl-N-[4-[5-(trifluoromethyl)-1,2,4-oxadiazol-3-yl]phenyl]cyclobutane-carboxamide]
pest or weed control at 200 ppm [2]: ≥ 80% | pest or weed control at 200 ppm [3]: ≥ 80% | inhibition of growth at 20 ppm [1]: ≥ 80% | pest or weed control at 100 ppm (Uromyces viciae-fabae): ≥ 80% | pest or weed control at 200 ppm (Phakopsora pachyrhizi): ≥ 80%

melting point: 152 to 155 °C
SMILES: CONC(=O)Nc1ccc(-c2noc(C(F)(F)F)n2)cc1 [Compound 2.30, 1-methoxy-3-[4-[5-(trifluoromethyl)-1,2,4-oxadiazol-3-yl]phenyl]urea]
pest or weed control at 200 ppm [2]: ≥ 80% | inhibition of growth at 20 ppm [1]: ≥ 80%
